In ChEMBL document CHEMBL1201862, “PubChem BioAssay data set” (2004):
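Briefly, cells in 96-well plates were exposed to five compound concentrations for 48 h, and endpoints were estimated by linear interpolation. Here, GI50 denotes the concentration required for 50% inhibition of growth.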 Active and inactive are the calls of the source. No stated cut-off is given here; in the data, active = GI50 up to about 1.1 µM and inactive = higher.

How the values were obtained:
Assay in all cases: NCI-60 cell line screen, 48 h
[1] = tested on: LOX IMVI
[2] = tested on: SNB-19
[3] = tested on: A549
[4] = tested on: 786-0
[5] = tested on: HOP-62
[6] = tested on: SK-MEL-5
[7] = tested on: UACC-257
[8] = tested on: SF-539
[9] = tested on: HL-60
[10] = tested on: SN12C
[11] = tested on: UACC-62
[12] = tested on: OVCAR-4
[13] = tested on: COLO 205
[14] = tested on: Malme-3M
[15] = tested on: SK-MEL-28
[16] = tested on: CCRF-CEM
[17] = tested on: SF-295
[18] = tested on: NCI-H226
[19] = tested on: OVCAR-5

SMILES	GI50 [1]	GI50 [2]	GI50 [3]	GI50 [4]	GI50 [5]	GI50 [6]	GI50 [7]	GI50 [8]	GI50 [9]	GI50 [10]	GI50 [11]	GI50 [12]	GI50 [13]	GI50 [14]	GI50 [15]	GI50 [16]	GI50 [17]	GI50 [18]	GI50 [19]
c1ccc(C2=NOC3COc4ccccc4OCC23)cc1 (stereo not given)	> 100 µM (inactive)	> 100 µM (inactive)	> 100 µM (inactive)	> 100 µM (inactive)	> 100 µM (inactive)	61.5 µM (inactive)	> 100 µM (inactive)	> 100 µM (inactive)	89.5 µM (inactive)	> 100 µM (inactive)	> 100 µM (inactive)	> 100 µM (inactive)	> 100 µM (inactive)	> 100 µM (inactive)	> 100 µM (inactive)	> 100 µM (inactive)	> 100 µM (inactive)		
O=[N+]([O-])c1ccc(Cl)c2c([N+](=O)[O-])cccc12	3.71 µM (inactive)	8.51 µM (inactive)	> 10 µM (inactive)	3.14 µM (inactive)	> 10 µM (inactive)	2.33 µM (inactive)		3.06 µM (inactive)	2.48 µM (inactive)	4.56 µM (inactive)	5.46 µM (inactive)	6.22 µM (inactive)	4.57 µM (inactive)	5.82 µM (inactive)	7.93 µM (inactive)	2.36 µM (inactive)	> 10 µM (inactive)		
CC1=C(c2cc(C(=O)Nc3cccc(C(F)(F)F)c3)ncn2)Sc2ccccc2N1		> 100 µM (inactive)	> 100 µM (inactive)	> 100 µM (inactive)	> 100 µM (inactive)	> 100 µM (inactive)	> 100 µM (inactive)	> 100 µM (inactive)	> 100 µM (inactive)	> 100 µM (inactive)	> 100 µM (inactive)	> 100 µM (inactive)	> 100 µM (inactive)	> 100 µM (inactive)	> 100 µM (inactive)	> 100 µM (inactive)	> 100 µM (inactive)	> 100 µM (inactive)	
CC1(C)CC(C)(C)CC(O)(C2(O)CC(C)(C)CC(C)(C)C2)C1	> 100 µM (inactive)	> 100 µM (inactive)	> 100 µM (inactive)	> 100 µM (inactive)	> 100 µM (inactive)	> 100 µM (inactive)	> 100 µM (inactive)	> 100 µM (inactive)	> 100 µM (inactive)	> 100 µM (inactive)	> 100 µM (inactive)		> 100 µM (inactive)	> 100 µM (inactive)	> 100 µM (inactive)	> 100 µM (inactive)	> 100 µM (inactive)	> 100 µM (inactive)	
Cc1ccc(S(=O)(=O)N/N=C\c2c3ccccc3[n+]([O-])c3ccccc23)cc1	1.08 µM (active)	11.9 µM (inactive)	5.12 µM (inactive)	2.01 µM (inactive)	5.38 µM (inactive)	5.21 µM (inactive)	9.95 µM (inactive)		0.889 µM (active)	4.59 µM (inactive)	5.55 µM (inactive)	10.8 µM (inactive)	2.72 µM (inactive)	12.2 µM (inactive)	3.78 µM (inactive)	0.476 µM (active)	6.76 µM (inactive)	4.54 µM (inactive)	14.7 µM (inactive)
CN(C)c1ccc(/C=C(\NC(=O)c2ccccc2)c2nc3ccc4c(c3[nH]2)C(=O)c2ccccc2C4=O)cc1	20.2 µM (inactive)	> 100 µM (inactive)	20 µM (inactive)	25.4 µM (inactive)	61.9 µM (inactive)	34.3 µM (inactive)	> 100 µM (inactive)	36.5 µM (inactive)		34 µM (inactive)	35.8 µM (inactive)	47.2 µM (inactive)	> 100 µM (inactive)	> 100 µM (inactive)	27.5 µM (inactive)	0.966 µM (active)	46.6 µM (inactive)		> 100 µM (inactive)
CC1C2=C(O)CC(C)(C)CC2=NC2=C1C(=O)CC(C)(C)C2 (stereo not given)	> 100 µM (inactive)	> 100 µM (inactive)	> 100 µM (inactive)	> 100 µM (inactive)		> 100 µM (inactive)		> 100 µM (inactive)	> 100 µM (inactive)	> 100 µM (inactive)	> 100 µM (inactive)	> 100 µM (inactive)			> 100 µM (inactive)	> 100 µM (inactive)		> 100 µM (inactive)	> 100 µM (inactive)
NCC(=O)OCN1C(=O)C2C3C=CC(C2C1=O)C1C2C(=O)N(COC(=O)CN)C(=O)C2C31 (stereo not given)	19.1 µM (inactive)	48.8 µM (inactive)	25.5 µM (inactive)	19.6 µM (inactive)		17.7 µM (inactive)	31.8 µM (inactive)	18.9 µM (inactive)	18.2 µM (inactive)	23.3 µM (inactive)	24.2 µM (inactive)	26.1 µM (inactive)	18.2 µM (inactive)		19.5 µM (inactive)	21 µM (inactive)	53.7 µM (inactive)	39.5 µM (inactive)	
c1ccc(CN(Cc2ccccn2)Cn2cccn2)nc1	67.6 µM (inactive)	> 100 µM (inactive)	54.6 µM (inactive)	91.2 µM (inactive)	> 100 µM (inactive)	43.9 µM (inactive)	39 µM (inactive)	> 100 µM (inactive)	22.9 µM (inactive)	47.9 µM (inactive)	20.3 µM (inactive)	> 100 µM (inactive)	57.1 µM (inactive)		15.7 µM (inactive)	29.5 µM (inactive)	62.7 µM (inactive)		
Cc1cccc2c1C/C(=C1\CCc3c(C)cccc31)C2=O	> 100 µM (inactive)	> 100 µM (inactive)	> 100 µM (inactive)	90.4 µM (inactive)	> 100 µM (inactive)	> 100 µM (inactive)	> 100 µM (inactive)		> 100 µM (inactive)	> 100 µM (inactive)	> 100 µM (inactive)	52.6 µM (inactive)	> 100 µM (inactive)	> 100 µM (inactive)	> 100 µM (inactive)	> 100 µM (inactive)	> 100 µM (inactive)	> 100 µM (inactive)	> 100 µM (inactive)
CC1CC[C@]2(C(=O)O)CCC3(C)C(=CC(=O)C4[C@@]5(C)CCC(=O)C(C)(C)C5CC[C@]43C)[C@@H]2[C@H]1C (stereo not given in full)	15.9 µM (inactive)	40.5 µM (inactive)	24.5 µM (inactive)	31.8 µM (inactive)	22.1 µM (inactive)	20.7 µM (inactive)	23.2 µM (inactive)	18.9 µM (inactive)	4.75 µM (inactive)	29.9 µM (inactive)	13.2 µM (inactive)	35.2 µM (inactive)	17.6 µM (inactive)	28.8 µM (inactive)	18 µM (inactive)	14.4 µM (inactive)	31 µM (inactive)	25.2 µM (inactive)	
CCCCCCCOc1ccc(/C=C\c2cc[n+](CCCCCCCC[n+]3ccc(/C=C\c4ccc(OCCCCCCC)cc4)cc3)cc2)cc1	25 µM (inactive)	7.87 µM (inactive)	8.55 µM (inactive)	14.7 µM (inactive)	26.6 µM (inactive)	14.6 µM (inactive)	86.1 µM (inactive)	65.5 µM (inactive)	4.3 µM (inactive)	20 µM (inactive)	35.3 µM (inactive)	21.6 µM (inactive)	10.7 µM (inactive)	18.7 µM (inactive)	17.6 µM (inactive)	> 100 µM (inactive)	13.3 µM (inactive)		17.7 µM (inactive)
COc1ccc(NC(=O)C(C)Oc2ccc(OCC3CCCCC3)cc2)cc1 (stereo not given)	30.7 µM (inactive)	> 100 µM (inactive)	54.1 µM (inactive)	> 100 µM (inactive)		34.1 µM (inactive)	36.6 µM (inactive)	> 100 µM (inactive)	42.2 µM (inactive)	> 100 µM (inactive)	> 100 µM (inactive)	94 µM (inactive)		34.2 µM (inactive)	> 100 µM (inactive)	71.1 µM (inactive)		> 100 µM (inactive)	
COc1ccc(OC)c2[nH]c(Sc3c([N+](=O)[O-])ncn3C)nc12	79.1 µM (inactive)	> 10 µM (inactive)	33.7 µM (inactive)	29.3 µM (inactive)	> 100 µM (inactive)	17.6 µM (inactive)	15.3 µM (inactive)	18 µM (inactive)		19.9 µM (inactive)	18.5 µM (inactive)	22.9 µM (inactive)	11.6 µM (inactive)	13.5 µM (inactive)	24.3 µM (inactive)		41.8 µM (inactive)	14.2 µM (inactive)	94.6 µM (inactive)
COc1ccc(OC(C(=O)O)c2ccccc2)c2c1CCCC2=O (stereo not given)	> 100 µM (inactive)	> 100 µM (inactive)	> 100 µM (inactive)	> 100 µM (inactive)	> 100 µM (inactive)	> 100 µM (inactive)	> 100 µM (inactive)	> 100 µM (inactive)	> 100 µM (inactive)	> 100 µM (inactive)	> 100 µM (inactive)	> 100 µM (inactive)	> 100 µM (inactive)	> 100 µM (inactive)	> 100 µM (inactive)	> 100 µM (inactive)	> 100 µM (inactive)		> 100 µM (inactive)
CCCN(CCCC(NC(C)=O)C(=O)NCc1ccccc1)C(=O)NC (stereo not given)	> 100 µM (inactive)	> 100 µM (inactive)	> 100 µM (inactive)	> 100 µM (inactive)	> 100 µM (inactive)	> 100 µM (inactive)	> 100 µM (inactive)	> 100 µM (inactive)		> 100 µM (inactive)	> 100 µM (inactive)	> 100 µM (inactive)	> 100 µM (inactive)	> 100 µM (inactive)	> 100 µM (inactive)	> 100 µM (inactive)	> 100 µM (inactive)	> 100 µM (inactive)	> 100 µM (inactive)
